This is an account of results in ChEMBL document CHEMBL5131409, “Synthesis and characterization of chiral 6-azaspiro[2.5]octanes as potent and selective antagonists of the M4 muscarinic acetylcholine receptor” (Bioorg Med Chem Lett, 2022).

pIC50: −log10 of the molar value. Some results are limits rather than exact numbers.

Data set [1] is described as follows: Ratio of AUC (0.25 to last) in rat brain to plasma at 3 mg/kg, ip. The conditions noted are these: read-out: Ratio AUC. The class given is ADME, organism-based.
Data set [2] deals with T1, Muscarinic acetylcholine receptor M2 (Homo sapiens, UniProt P08172).
T1 sequence (P08172 whole entry): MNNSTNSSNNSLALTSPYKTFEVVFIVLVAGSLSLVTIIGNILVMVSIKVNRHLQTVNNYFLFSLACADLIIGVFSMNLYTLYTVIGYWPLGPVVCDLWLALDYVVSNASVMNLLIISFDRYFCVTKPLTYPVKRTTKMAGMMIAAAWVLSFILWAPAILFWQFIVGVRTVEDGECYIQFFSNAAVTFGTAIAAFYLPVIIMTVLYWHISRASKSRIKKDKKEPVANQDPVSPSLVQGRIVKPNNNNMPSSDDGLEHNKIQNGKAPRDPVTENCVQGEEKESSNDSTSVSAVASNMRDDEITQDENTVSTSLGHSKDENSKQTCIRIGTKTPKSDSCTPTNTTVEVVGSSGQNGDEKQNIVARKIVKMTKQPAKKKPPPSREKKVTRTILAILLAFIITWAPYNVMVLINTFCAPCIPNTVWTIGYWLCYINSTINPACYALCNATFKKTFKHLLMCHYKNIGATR
As to the kind of experiment: Inhibition of human muscarinic acetylcholine M2 receptor expressed in CHO cells co-expressing Gqi5 preincubated with compound followed by acetylcholine addition at EC80 concentration by calcium mobilization assay. The class given is functional, cell-based. (In general: Calcium assays in cells follow changes in intracellular calcium, usually with a dye or a luminescent sensor.)

The target of data set [3] is T2, Muscarinic acetylcholine receptor M2 (Rattus norvegicus, UniProt P10980).
T2 sequence (P10980 whole entry): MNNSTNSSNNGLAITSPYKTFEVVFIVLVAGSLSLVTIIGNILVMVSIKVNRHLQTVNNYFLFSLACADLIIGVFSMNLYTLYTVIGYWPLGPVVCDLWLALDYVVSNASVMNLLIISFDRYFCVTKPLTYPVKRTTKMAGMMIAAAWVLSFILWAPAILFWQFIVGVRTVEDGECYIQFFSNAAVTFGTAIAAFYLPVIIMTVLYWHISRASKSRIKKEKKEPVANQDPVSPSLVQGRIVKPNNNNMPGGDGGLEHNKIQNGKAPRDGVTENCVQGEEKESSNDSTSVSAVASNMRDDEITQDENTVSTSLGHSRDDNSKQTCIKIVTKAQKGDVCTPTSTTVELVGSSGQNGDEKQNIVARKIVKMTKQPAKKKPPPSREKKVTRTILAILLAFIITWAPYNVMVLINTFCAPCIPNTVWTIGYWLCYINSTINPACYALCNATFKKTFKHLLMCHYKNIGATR
The data set can be described thus: Inhibition of rat muscarinic acetylcholine M2 receptor expressed in CHO cells co-expressing Gqi5 preincubated with compound followed by acetylcholine addition at EC80 concentration by calcium mobilization assay. The class given is functional, cell-based.

The next data set concerns the target T3, Cytochrome P450 1A2 (Homo sapiens, UniProt P05177).
T3 sequence (P05177 whole entry): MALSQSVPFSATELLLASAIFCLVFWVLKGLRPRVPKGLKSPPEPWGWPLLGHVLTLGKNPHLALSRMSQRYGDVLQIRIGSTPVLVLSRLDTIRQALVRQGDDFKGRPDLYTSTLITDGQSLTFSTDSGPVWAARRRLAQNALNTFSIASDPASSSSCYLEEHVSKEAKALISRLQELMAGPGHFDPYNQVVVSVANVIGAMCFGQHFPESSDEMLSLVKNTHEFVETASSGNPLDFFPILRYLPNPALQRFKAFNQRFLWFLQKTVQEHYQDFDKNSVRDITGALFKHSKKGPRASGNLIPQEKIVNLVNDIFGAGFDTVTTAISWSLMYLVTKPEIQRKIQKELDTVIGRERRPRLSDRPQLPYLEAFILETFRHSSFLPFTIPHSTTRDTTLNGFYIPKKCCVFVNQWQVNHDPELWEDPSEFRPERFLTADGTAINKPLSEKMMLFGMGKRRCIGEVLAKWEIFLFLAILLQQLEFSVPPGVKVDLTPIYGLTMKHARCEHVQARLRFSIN
The data set can be described thus: Inhibition of CYP1A2 in human liver microsomes using cocktail of isoform-specific probe substrate. The data set is classed as ADME, Microsome. On the technique in general: Liver microsomes are a subcellular fraction often used to study metabolism.

The nature of data set [4]: AUC (0.25 to last) in rat plasma at 3 mg/kg, ip. The class given is ADME, organism-based. On the set-up: dose 3 mg/kg, route ip.
Another data set deals with Cytochrome P450 2C9 (Homo sapiens, UniProt P11712). The data set can be described thus: Inhibition of CYP2C9 in human liver microsomes using cocktail of isoform-specific probe substrate. The data set is classed as ADME, Microsome.
Chain of Cytochrome P450 2C9 (P11712 whole entry, canonical isoform): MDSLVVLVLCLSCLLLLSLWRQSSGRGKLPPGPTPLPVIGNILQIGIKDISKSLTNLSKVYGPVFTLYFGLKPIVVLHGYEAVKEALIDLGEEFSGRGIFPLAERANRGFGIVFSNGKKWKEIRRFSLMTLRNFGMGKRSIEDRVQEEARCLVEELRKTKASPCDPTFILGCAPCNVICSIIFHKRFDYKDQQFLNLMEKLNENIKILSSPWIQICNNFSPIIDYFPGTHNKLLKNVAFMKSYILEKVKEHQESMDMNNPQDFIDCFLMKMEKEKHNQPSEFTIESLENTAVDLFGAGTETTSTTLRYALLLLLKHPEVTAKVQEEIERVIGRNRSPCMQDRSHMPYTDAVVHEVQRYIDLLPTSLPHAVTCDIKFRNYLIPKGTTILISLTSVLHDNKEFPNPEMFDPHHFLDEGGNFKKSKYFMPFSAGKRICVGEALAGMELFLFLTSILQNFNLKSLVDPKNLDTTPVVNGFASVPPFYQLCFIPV
Data set [5] is described as follows: AUC (0 to infinity) in rat at 3 mg/kg, iv. On the set-up: time infinity, dose 3 mg/kg, route iv. The following applies: in vivo. The class given is ADME, organism-based.
The target in data set [6] is Muscarinic acetylcholine receptor M3 (Rattus norvegicus, UniProt P08483). The data set can be described thus: Inhibition of rat muscarinic acetylcholine M3 receptor expressed in CHO cells co-expressing Gqi5 preincubated with compound followed by acetylcholine addition at EC80 concentration by calcium mobilization assay. The data set is classed as functional, cell-based.
Chain of Muscarinic acetylcholine receptor M3 (P08483 whole entry): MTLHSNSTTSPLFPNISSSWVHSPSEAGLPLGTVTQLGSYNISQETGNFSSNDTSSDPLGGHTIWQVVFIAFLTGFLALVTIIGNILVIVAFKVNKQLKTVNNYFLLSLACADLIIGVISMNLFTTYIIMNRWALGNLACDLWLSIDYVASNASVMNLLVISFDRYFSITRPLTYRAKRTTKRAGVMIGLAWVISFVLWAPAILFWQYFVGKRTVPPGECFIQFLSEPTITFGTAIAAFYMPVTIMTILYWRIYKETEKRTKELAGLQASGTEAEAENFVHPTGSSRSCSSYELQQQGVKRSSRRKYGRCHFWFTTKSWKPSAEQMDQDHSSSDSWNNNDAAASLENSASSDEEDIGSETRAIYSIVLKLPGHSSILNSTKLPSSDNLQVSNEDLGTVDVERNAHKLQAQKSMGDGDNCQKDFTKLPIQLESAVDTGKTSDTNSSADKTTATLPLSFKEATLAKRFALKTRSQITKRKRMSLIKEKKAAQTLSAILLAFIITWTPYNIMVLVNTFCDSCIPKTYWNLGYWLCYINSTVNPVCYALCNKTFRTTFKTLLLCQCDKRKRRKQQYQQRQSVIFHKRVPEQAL

The target of data set [7] is T4, Muscarinic acetylcholine receptor M4 (Homo sapiens, UniProt P08173).
T4 sequence (P08173 whole entry): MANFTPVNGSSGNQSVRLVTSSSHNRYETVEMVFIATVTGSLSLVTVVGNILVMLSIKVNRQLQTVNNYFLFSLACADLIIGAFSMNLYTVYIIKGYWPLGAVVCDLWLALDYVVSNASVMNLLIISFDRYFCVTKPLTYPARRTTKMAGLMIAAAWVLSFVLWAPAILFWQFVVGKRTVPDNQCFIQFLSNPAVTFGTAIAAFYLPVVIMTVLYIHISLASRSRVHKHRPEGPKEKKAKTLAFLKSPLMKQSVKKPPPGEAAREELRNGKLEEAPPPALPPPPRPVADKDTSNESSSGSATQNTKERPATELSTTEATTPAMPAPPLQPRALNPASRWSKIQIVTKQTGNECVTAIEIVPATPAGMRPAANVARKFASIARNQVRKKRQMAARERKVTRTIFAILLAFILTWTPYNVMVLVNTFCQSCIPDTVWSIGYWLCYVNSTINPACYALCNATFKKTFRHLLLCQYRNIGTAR
As to the kind of experiment: Inhibition of human muscarinic acetylcholine M4 receptor expressed in CHO cells co-expressing Gqi5 in the presence of acetylcholine at EC80 concentration by calcium mobilization assay. The class given is functional, cell-based.

Data set [8] can be described thus: Volume of distribution in rat at 3 mg/kg, iv. The data set is classed as ADME, organism-based. The conditions noted are these: in vivo.
The nature of data set [9]: Intrinsic clearance in human liver microsomes. The class given is ADME, Microsome. The conditions noted are these: read-out: CLH.
A short description of data set [10]: AUC (0.25 to last) in mouse brain at 3 mg/kg, ip. The data set is classed as ADME, organism-based. The conditions noted are these: in vivo.
In data set [11] the target is T1, Muscarinic acetylcholine receptor M2. As to the kind of experiment: Inhibition of human muscarinic acetylcholine M2 receptor expressed in CHO cells co-expressing Gqi5 in the presence of acetylcholine at EC80 concentration by calcium mobilization assay. The class given is functional, cell-based.
A short description of data set [12]: AUC (0.25 to last) in rat brain at 3 mg/kg, ip. The conditions noted are these: in vivo. The class given is ADME, organism-based.
For the next data set, the target named is Cytochrome P450 2D6 (Homo sapiens, UniProt P10635). As to the kind of experiment: Inhibition of CYP2D6 in human liver microsomes using cocktail of isoform-specific probe substrate. The data set is classed as ADME, Microsome.
Chain of Cytochrome P450 2D6 (P10635 whole entry, canonical isoform): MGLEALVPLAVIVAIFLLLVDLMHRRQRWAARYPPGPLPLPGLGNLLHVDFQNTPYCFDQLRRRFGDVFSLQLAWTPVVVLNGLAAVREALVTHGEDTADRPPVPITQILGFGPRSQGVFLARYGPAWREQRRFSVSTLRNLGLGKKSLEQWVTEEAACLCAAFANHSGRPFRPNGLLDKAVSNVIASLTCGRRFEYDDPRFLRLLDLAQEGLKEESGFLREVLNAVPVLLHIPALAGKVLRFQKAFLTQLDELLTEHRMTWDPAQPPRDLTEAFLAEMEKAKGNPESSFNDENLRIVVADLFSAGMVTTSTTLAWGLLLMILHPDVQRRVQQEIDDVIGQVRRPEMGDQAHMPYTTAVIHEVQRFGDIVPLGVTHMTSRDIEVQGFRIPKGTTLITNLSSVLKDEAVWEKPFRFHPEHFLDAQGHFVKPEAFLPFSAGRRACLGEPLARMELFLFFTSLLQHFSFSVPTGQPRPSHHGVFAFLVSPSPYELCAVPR
The target of a further data set is Cytochrome P450 3A4 (Homo sapiens, UniProt P08684). As to the kind of experiment: Inhibition of CYP3A4 in human liver microsomes using cocktail of isoform-specific probe substrate. The class given is ADME, Microsome.
Chain of Cytochrome P450 3A4 (P08684 whole entry, canonical isoform): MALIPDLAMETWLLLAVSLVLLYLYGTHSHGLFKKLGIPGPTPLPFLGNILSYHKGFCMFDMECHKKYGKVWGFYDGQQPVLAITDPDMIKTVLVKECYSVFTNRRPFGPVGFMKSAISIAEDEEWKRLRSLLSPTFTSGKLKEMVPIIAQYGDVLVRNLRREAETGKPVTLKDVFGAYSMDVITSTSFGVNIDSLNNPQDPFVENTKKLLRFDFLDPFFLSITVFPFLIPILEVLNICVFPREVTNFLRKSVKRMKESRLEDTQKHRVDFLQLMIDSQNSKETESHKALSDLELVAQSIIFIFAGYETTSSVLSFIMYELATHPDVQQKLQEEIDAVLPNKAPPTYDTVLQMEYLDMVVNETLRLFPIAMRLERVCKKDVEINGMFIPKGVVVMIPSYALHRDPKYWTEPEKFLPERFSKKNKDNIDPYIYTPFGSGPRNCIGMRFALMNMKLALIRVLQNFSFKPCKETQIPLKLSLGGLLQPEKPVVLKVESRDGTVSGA
Data set [13] is described as follows: Elimination half life in rat at 3 mg/kg, iv. The data set is classed as ADME, organism-based. The following applies: in vivo, read-out: beta t1/2 (converted).

Usually pIC50 stands for the negative decadic logarithm of the IC50, by convention in mol/L. Broadly, the AUC is concentration integrated over time. A higher AUC goes with more exposure. By AUC(0-inf) is commonly meant the area under the concentration-time curve extrapolated to infinity. Read a high AUC(0-inf) as more exposure. One may read the Vd as a proportionality between amount in the body and measured concentration, not a real space. The low end stands for confinement near the circulation, the high end for extensive tissue distribution. `CC(=O)Nc1ccc(-c2ccc(NC[C@@H]3CC34CCN(CC3CCOCC3)CC4)nn2)cc1`: the Kp in [1] was 0.23. Moreover, the negative-log IC50 (pIC50) is under 5.00 in data set [2]; under 5.00 in [3]; under 4.52 against Cytochrome P450 1A2; under 4.52 against Cytochrome P450 2C9; under 5.00 in data set [6]; 7.15 in data set [7]. For the same compound, the pIC50 in data set [11] was under 5.00; at Cytochrome P450 2D6, under 4.52; on Cytochrome P450 3A4 it was under 4.52. The AUC in data set [4] was 9550 ng·h/mL. The AUC(0-inf) in data set [5] was 202 ng·h/mL. Further, the Vd in [8] turned out to be 147 L/kg. In addition, the predicted hepatic clearance in data set [9] is 16 mL/min/kg. Also, the AUClast worked out at 3980 ng·h/g in [10] and 2180 ng·h/g in data set [12]. The half-life in [13] is 8.6 h.
